Key:
NCI-H322M [1] = experiment: Antiproliferative activity against human NCI-H322M cells assessed as inhibition of cell growth at 10 uM measured after 48 hrs by SRB assay relative to control; assay type: functional
KM12 = experiment: Antiproliferative activity against human KM12 cells assessed as inhibition of cell growth at 10 uM measured after 48 hrs by SRB assay relative to control; assay type: functional
DU-145 = experiment: Antiproliferative activity against human DU-145 cells assessed as inhibition of cell growth at 10 uM measured after 48 hrs by SRB assay relative to control; assay type: functional
MCF7 = experiment: Antiproliferative activity against human MCF7 cells assessed as inhibition of cell growth at 10 uM measured after 48 hrs by SRB assay relative to control; assay type: functional
RPMI-8226 = experiment: Antiproliferative activity against human RPMI-8226 cells assessed as inhibition of cell growth measured after 48 hrs by SRB assay; assay type: functional
NCI-H322M [2] = experiment: Antiproliferative activity against human NCI-H322M cells assessed as inhibition of cell growth measured after 48 hrs by SRB assay; assay type: functional
HCC 2998 = experiment: Antiproliferative activity against human HCC 2998 cells assessed as inhibition of cell growth measured after 48 hrs by SRB assay; assay type: functional
SW-620 = experiment: Antiproliferative activity against human SW-620 cells assessed as inhibition of cell growth measured after 48 hrs by SRB assay; assay type: functional
SF-295 = experiment: Antiproliferative activity against human SF-295 cells assessed as inhibition of cell growth measured after 48 hrs by SRB assay; assay type: functional
IGROV-1 = experiment: Antiproliferative activity against human IGROV-1 cells assessed as inhibition of cell growth measured after 48 hrs by SRB assay; assay type: functional
OVCAR-4 = experiment: Antiproliferative activity against human OVCAR-4 cells assessed as inhibition of cell growth measured after 48 hrs by SRB assay; assay type: functional
OVCAR-5 = experiment: Antiproliferative activity against human OVCAR-5 cells assessed as inhibition of cell growth measured after 48 hrs by SRB assay; assay type: functional
WI-38 [3] = experiment: Cytotoxicity against human WI-38 cells assessed as reduction in cell viability after 48 hrs by MTT assay; assay type: cell-based; details: WI-38, 48 h
HCT-116 [4] = experiment: Cell cycle arrest in human HCT-116 cells assessed as accumulation in sub-G phase at IC50 concentration incubated for 48 hrs by propidium iodide staining based flow cytometry analysis (reference value: 2.4 %); assay type: functional
HCT-116 [5] = experiment: Induction of apoptosis in human HCT-116 cells assessed as necrotic cells at IC50 incubated for 48 hrs by annexin-V FITC and propidium iodide staining based flow cytometry analysis (reference value: 0.51 %); assay type: functional
WI-38 [6] = experiment: Induction of apoptosis in human WI-38 cells assessed as necrotic cells at IC50 incubated for 48 hrs by annexin-V FITC and propidium iodide staining based flow cytometry analysis (reference value: 0.39 %); assay type: cell-based; details: wi-38, 48 h
HCT-116 [7] = experiment: Induction of apoptosis in human HCT116 cells assessed as up regulation of caspase-3 expression by RT-PCR analysis relative to untreated control; assay type: functional
HCT-116 [8] = experiment: Induction of apoptosis in human HCT116 cells assessed as up regulation of caspase-8 expression by RT-PCR analysis relative to untreated control; assay type: functional
[9] = read-out: LC50 (the source's name)

## COc1ccc(-n2c(=S)sc3c(Cl)nc(C)nc32)c(OC)c1
NCI-H322M [1]
  inhibition at 10 µM: > 50%
KM12
  inhibition at 10 µM: > 50%
DU-145
  inhibition at 10 µM: > 50%
MCF7
  inhibition at 10 µM: > 50%
RPMI-8226
  GI50: 3.47 µM
  TGI: 14.1 µM
RPMI-8226; [9]
  CC50: > 100 µM
NCI-H322M [2]
  GI50: 2510 nM
  TGI: 6.46 µM
NCI-H322M [2]; [9]
  CC50: 22.4 µM
HCC 2998
  GI50: 16.2 µM
  TGI: 30.9 µM
HCC 2998; [9]
  CC50: 58.9 µM
SW-620
  GI50: 2570 nM
  TGI: 5.5 µM
SW-620; [9]
  CC50: 28.8 µM
SF-295
  GI50: 7.08 µM
  TGI: 19.9 µM
SF-295; [9]
  CC50: 46.8 µM
IGROV-1
  GI50: 1950 nM
  TGI: 3.98 µM
IGROV-1; [9]
  CC50: 8.32 µM
OVCAR-4
  GI50: 4.68 µM
  TGI: 15.5 µM
OVCAR-4; [9]
  CC50: 41.7 µM
OVCAR-5
  GI50: 6.17 µM
  TGI: 20.9 µM
OVCAR-5; [9]
  CC50: 53.7 µM
WI-38 [3]
  IC50: 21.7 µM
HCT-116 [4]
  Activity: 17.67%
HCT-116 [5]
  Activity: 3.31%
WI-38 [6]
  Activity: 1.41%
HCT-116 [7]
  fold change (FC): 11.2
HCT-116 [8]
  fold change (FC): 7.9

Reference: ChEMBL document CHEMBL4725331, “An investigative study of antitumor properties of a novel thiazolo[4,5-d]pyrimidine small molecule revealing superior antitumor activity with CDK1 selectivity and potent pro-apoptotic properties” (Bioorg Med Chem, 2020)
